From ChEMBL document CHEMBL2413040, “Ligand/kappa-opioid receptor interactions: insights from the X-ray crystal structure” (Eur J Med Chem, 2013)

Experiment: Binding affinity to kappa opioid receptor in guinea pig cerebral cortex after 2.5 hrs
Assay type: tissue-based, Cavia porcellus

Ki [nM]	Compound
6000	NC(=O)[C@H](CC1CCCCC1)NC(=O)[C@@H](Cc1c[nH]c2ccccc12)NC(=O)[C@H](Cc1ccc2ccccc2c1)NC(=O)[C@@H](N)Cc1ccccc1
10000	CCCC[C@H](N)C(=O)N[C@@H](Cc1ccc2ccccc2c1)C(=O)N[C@H](Cc1c[nH]c2ccccc12)C(=O)N[C@@H](CC1CCCCC1)C(N)=O
27	CCCC[C@H](N)C(=O)N[C@@H](Cc1ccc2ccccc2c1)C(=O)N[C@H](CCCC)C(=O)N[C@@H](CC1CCCCC1)C(N)=O
33	CCCC[C@@H](NC(=O)[C@H](Cc1ccc2ccccc2c1)NC(=O)[C@@H](N)Cc1ccccc1)C(=O)N[C@@H](CC1CCCCC1)C(N)=O
53	CC[C@H](C)[C@@H](NC(=O)[C@H](Cc1ccc2ccccc2c1)NC(=O)[C@@H](N)Cc1ccccc1)C(=O)N[C@@H](CC1CCCCC1)C(N)=O
56	CCCC[C@H](N)C(=O)N[C@@H](Cc1ccc2ccccc2c1)C(=O)N[C@@H](C(=O)N[C@@H](CC1CCCCC1)C(N)=O)[C@@H](C)CC
64	CC[C@H](C)[C@@H](NC(=O)[C@H](Cc1ccccc1)NC(=O)[C@@H](N)Cc1ccccc1)C(=O)N[C@@H](CC1CCCCC1)C(N)=O
341	CCCC[C@H](N)C(=O)N[C@@H](Cc1ccccc1)C(=O)N[C@@H](C(=O)N[C@@H](CC1CCCCC1)C(N)=O)[C@@H](C)CC
1150	N=C(N)NCCC[C@H](NC(=O)[C@@H](Cc1c[nH]c2ccccc12)NC(=O)[C@H](Cc1ccc2ccccc2c1)NC(=O)[C@@H](N)Cc1ccccc1)C(N)=O
1760	CCCC[C@H](N)C(=O)N[C@@H](Cc1ccc2ccccc2c1)C(=O)N[C@H](Cc1c[nH]c2ccccc12)C(=O)N[C@@H](CCCNC(=N)N)C(N)=O
4550	CCCC[C@H](N)C(=O)N[C@@H](Cc1ccccc1)C(=O)N[C@H](Cc1c[nH]c2ccccc12)C(=O)N[C@@H](CCCNC(=N)N)C(N)=O
3.6	CC[C@H](C)[C@@H](NC(=O)[C@H](Cc1ccc2ccccc2c1)NC(=O)[C@@H](N)Cc1ccccc1)C(=O)N[C@@H](CCCNC(=N)N)C(N)=O

Second part, the compound before the results:

Compound	Ki [nM]
CCCC[C@H](N)C(=O)N[C@@H](Cc1ccccc1)C(=O)N[C@H](Cc1c[nH]c2ccccc12)C(=O)N[C@@H](CC1CCCCC1)C(N)=O	10000
NC(=O)[C@H](CC1CCCCC1)NC(=O)[C@@H](Cc1c[nH]c2ccccc12)NC(=O)[C@H](Cc1ccccc1)NC(=O)[C@@H](N)Cc1ccccc1	10000
CCCC[C@@H](NC(=O)[C@H](Cc1ccc2ccccc2c1)NC(=O)[C@@H](N)Cc1ccccc1)C(=O)N[C@@H](CCCNC(=N)N)C(N)=O	7.1
CCCC[C@H](N)C(=O)N[C@@H](Cc1ccccc1)C(=O)N[C@@H](C(=O)N[C@@H](CCCNC(=N)N)C(N)=O)[C@@H](C)CC	9.3
CCCC[C@@H](NC(=O)[C@H](Cc1ccccc1)NC(=O)[C@@H](N)Cc1ccccc1)C(=O)N[C@@H](CC1CCCCC1)C(N)=O	26
CCCC[C@H](N)C(=O)N[C@@H](Cc1ccccc1)C(=O)N[C@H](CCCC)C(=O)N[C@@H](CC1CCCCC1)C(N)=O	71
N=C(N)NCCC[C@H](NC(=O)[C@@H](Cc1c[nH]c2ccccc12)NC(=O)[C@H](Cc1ccccc1)NC(=O)[C@@H](N)Cc1ccccc1)C(N)=O	1140
CCCC[C@@H](NC(=O)[C@H](Cc1ccccc1)NC(=O)[C@@H](N)Cc1ccccc1)C(=O)N[C@@H](CCCNC(=N)N)C(N)=O	1.2
CCCC[C@H](N)C(=O)N[C@@H](Cc1ccc2ccccc2c1)C(=O)N[C@@H](C(=O)N[C@@H](CCCNC(=N)N)C(N)=O)[C@@H](C)CC	1.5
CCCC[C@H](N)C(=O)N[C@@H](Cc1ccc2ccccc2c1)C(=O)N[C@H](CCCC)C(=O)N[C@@H](CCCNC(=N)N)C(N)=O	2.3
CC[C@H](C)[C@@H](NC(=O)[C@H](Cc1ccccc1)NC(=O)[C@@H](N)Cc1ccccc1)C(=O)N[C@@H](CCCNC(=N)N)C(N)=O	2.4
CCCC[C@H](N)C(=O)N[C@@H](Cc1ccccc1)C(=O)N[C@H](CCCC)C(=O)N[C@@H](CCCNC(=N)N)C(N)=O	4.2
